Key:
D(3) dopamine receptor [1] = target: T1, D(3) dopamine receptor (Homo sapiens, UniProt P35462)
Description: Intrinsic activity against dopamine receptor D3 by Eu-GTP binding assay

D(3) dopamine receptor [2] = target: T1, D(3) dopamine receptor; experiment: biochemical
Description: Displacement of [3H]spiroperidol from cloned human dopamine receptor D3 in CHO cell membrane

T1 sequence (P35462 whole entry): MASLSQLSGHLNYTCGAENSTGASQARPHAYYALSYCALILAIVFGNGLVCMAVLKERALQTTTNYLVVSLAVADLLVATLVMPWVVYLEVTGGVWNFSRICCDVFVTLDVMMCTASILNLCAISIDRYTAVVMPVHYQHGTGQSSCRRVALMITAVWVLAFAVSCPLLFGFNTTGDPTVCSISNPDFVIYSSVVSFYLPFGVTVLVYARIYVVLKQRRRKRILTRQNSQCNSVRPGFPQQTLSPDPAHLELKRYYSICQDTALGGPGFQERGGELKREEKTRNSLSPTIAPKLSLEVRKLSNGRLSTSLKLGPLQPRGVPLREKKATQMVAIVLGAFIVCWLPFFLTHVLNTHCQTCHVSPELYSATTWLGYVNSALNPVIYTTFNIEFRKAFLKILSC

Compound	EC50 (D(3) dopamine receptor [1]) [nM]	Ki (D(3) dopamine receptor [2]) [nM]
O=C(NCCCCN1CCN(c2cccc(Cl)c2Cl)CC1)c1ccccc1	209	11.9
O=C(NCCCCN1CCN(c2cccc(Cl)c2Cl)CC1)c1ccc2ccccc2c1	–	7.9
O=C(NCCCCN1CCN(c2cccc(Cl)c2Cl)CC1)c1cccc2ccccc12	60.3	6.9
COc1ccccc1N1CCN(CCCCNC(=O)[C@H]2CC[C@@H](c3ccccc3)CC2)CC1	1820	20.6
O=C(NCCCCN1CCN(c2cccc(Cl)c2Cl)CC1)[C@H]1CC[C@H](c2ccccc2)CC1	–	22.8
COc1ccccc1N1CCN(CCCCNC(=O)c2ccc3c(c2)Cc2ccccc2-3)CC1	49	0.52
COc1ccccc1N1CCN(CCCCNC(=O)c2cccc3ccccc23)CC1	–	32.6

The remaining molecules from weak to strong by Ki (D(3) dopamine receptor [2]), led by results:

EC50 (D(3) dopamine receptor [1]) [nM]	Ki (D(3) dopamine receptor [2]) [nM]	Compound
631	10.6	O=C(NCCCCN1CCN(c2cccc(Cl)c2Cl)CC1)[C@H]1CC[C@@H](c2ccccc2)CC1
–	3.4	COc1ccccc1N1CCN(CCCCNC(=O)[C@H]2CC[C@H](c3ccccc3)CC2)CC1
–	1.98	O=C(NCCCCN1CCN(c2cccc(Cl)c2Cl)CC1)c1ccc(-c2ccccc2)cc1
–	0.3	COc1ccccc1N1CCN(CCCCNC(=O)c2ccc(-c3ccccc3)cc2)CC1

Source: ChEMBL document CHEMBL1140426, “First structure-activity relationship study on dopamine D3 receptor agents with N-[4-(4-arylpiperazin-1-yl)butyl]arylcarboxamide structure” (J Med Chem, 2005)
